Like-named read-outs stand apart in the source and are kept apart here.
How the values were obtained:
[1] = Equilibrium dialysis, fraction unbound in plasma; assay type: in vitro ADME, human; settings: for fraction unbound at 16 h: pH 7.4, 16 h equilibrium dialysis
Method in brief: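 Human plasma dialysed against PBS pH 7.4 across a 10 kDa regenerated cellulose membrane, with equilibrium time optimized over 2–24 h at 20 and 200 nM. fu taken as post-dialysis buffer/plasma concentration ratio; triplicates, at least three repeats, recovery checked.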

[2] = Equilibrium dialysis, fraction unbound in brain homogenate; assay type: in vitro ADME, human
[3] = Levels in intraoperatively collected CSF of GBM patients; assay type: in vivo; settings: human, po, five GBM patients, oral LY3214996 200 mg once daily and abemaciclib 150 mg twice daily for 5 days, intraoperative CSF
Procedure: Blank brain and clinical brain tumor tissue homogenates were prepared at 1:9 (m/V) ratio with PBS. The samples were homogenized at a speed of 6.00 m/s for 40 s for three cycles using a Bead Ruptor Elite homogenizer (Omni International, Kennesaw, GA, USA). Plasma was used as a surrogate matrix when preparing calibration curves for brain and brain tumor homogenates and CSF as well as for the PBS fraction after sample dialysis. To minimize matrix differences, all plasma samples were spiked with PBS, while all non-plasma samples were spiked with plasma. Extraction of the analyte and IS was facilitated by protein precipitation using methanol-containing IS precipitation solution. Samples (70 μL) spiked with PBS or plasma were precipitated using 400 μL of IS precipitation solution. After centrifugation at 12,000 r/min for 10 min at 4 °C, the supernatant was transferred for LC-MS/MS analysis.
The validated bioanalytical method was employed to investigate analytes pharmacokinetics in the plasma, brain tumor, and CSF in GBM patients (ClinicalTrials.gov identifier: NCT04391595). The protocol was reviewed and approved by the Institutional Review Board of the Barrow Neurological Institute, St. Joseph's Hospital and Medical Center (Phoenix, AZ, USA). All patients enrolled in the trial provided written informed consent. […] Blood, CSF, and GBM tissue (including gadolinium-contrast enhancing and non-enhancing regions) samples were obtained intra-operatively from each patient on the […] on the planned operation day. Blood was centrifuged at 4 °C and 3,000 r/min for 10 min; plasma was subsequently collected. Brain tumors were resected 7–9 h after the last dose was administered. Once resected, the tissue samples were rinsed with PBS, paper dried, and freshly frozen in liquid nitrogen. The samples were then stored at −80 °C in a freezer for later analysis.

[4] = Analyte stability in human plasma; assay type: physicochemical; settings: for Freeze-thaw stability, Accuracy / Freeze-thaw stability, Mean concentration / Freeze-thaw stability, Difference: 3 cycles; for Freeze-thaw stability, Difference / Benchtop stability, Difference / Processed sample stability, Difference / Autosampler stability (5 °C), Difference / Long-term stability (−20 °C), Difference: vs freshly processed QC; for Benchtop stability, Accuracy / Benchtop stability, Mean concentration / Benchtop stability, Difference: 19 h; for Processed sample stability, Accuracy / Processed sample stability, Mean concentration / Processed sample stability, Difference: 23 h; for Autosampler stability (5 °C), Accuracy / Autosampler stability (5 °C), Mean concentration / Autosampler stability (5 °C), Difference: 112 h; for Long-term stability (−20 °C), Accuracy / Long-term stability (−20 °C), Mean concentration / Long-term stability (−20 °C), Difference: 27 days
Procedure: The stability of the analytes was studied under various storage and processing conditions. […] Short- and long-term stability studies of all analytes were conducted in human blank plasma and brain homogenate under several storage conditions. Analyte stability in biological matrices was analyzed using freshly prepared calibration standards and QC samples. The percentage difference between the stability and freshly processed QC was also assessed. Re-injection reproducibility was evaluated within the sample stability period in the autosampler. Analytes were considered stable if the accuracy at each level was ±15.0% of the nominal value. Additionally, the difference from corresponding comparison QC samples must be within ±15.0%.

[5] = Analyte stability in brain homogenate; assay type: physicochemical, human; settings: for Freeze-thaw stability, Accuracy / Freeze-thaw stability, Mean concentration / Freeze-thaw stability, Difference: 3 cycles; for Freeze-thaw stability, Difference / Benchtop stability, Difference / Processed sample stability, Difference / Autosampler stability (5 °C), Difference / Long-term stability (−20 °C), Difference: vs freshly processed QC; for Benchtop stability, Accuracy / Benchtop stability, Mean concentration / Benchtop stability, Difference: 6 h; for Processed sample stability, Accuracy / Processed sample stability, Mean concentration / Processed sample stability, Difference: 22 h; for Autosampler stability (5 °C), Accuracy / Autosampler stability (5 °C), Mean concentration / Autosampler stability (5 °C), Difference: 96 h
Method in brief: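 Brain homogenate QC samples were held under a range of short- and long-term storage conditions, then measured using freshly prepared calibration standards and QCs. Each stability sample was compared with freshly processed QC as a percentage difference. Acceptance required accuracy within ±15.0% of nominal at every level and a difference from comparison QC samples within ±15.0%.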

## Cn1nccc1Nc1nccc(-c2cc3c(s2)C(C)(C)N(CCN2CCOCC2)C3=O)n1 [LY3214996]
[1]; human, plasma of five GBM patients, read-out: Fraction unbound (fu), Plasma (patients)
  fraction unbound at 16 h: 0.406
[1]; pooled human plasma spiked at 20 and 200 nM, read-out: Fraction unbound (fu), Plasma (pooled)
  fraction unbound at 16 h: 0.372
[1]; pooled human plasma
  Plasma protein binding (in words): modest plasma protein binding
[2]; pH 7.4, human brain homogenate spiked at 20 and 200 nM, 16 h equilibrium dialysis, read-out: Fraction unbound (fu), Brain
  fraction unbound at 16 h: 0.065
[2]; spiked pooled human plasma vs human brain homogenate
  Plasma protein binding compared to binding to brain tissue components (ratio): at least 5.5 fold
[3]; read-out: Level in CSF (range)
  concentration at 6 day (intra-operative): 0.0497 to 0.118 µM
[3]; read-out: Median level in CSF
  concentration at 6 day (intra-operative): 0.0955 µM
[4]; HQC 400.0 nM
  Freeze-thaw stability, Accuracy: 100.6%
  Freeze-thaw stability, Mean concentration: 402.5 nM
  Freeze-thaw stability, Difference: 3.2%
  Benchtop stability, Accuracy: 102.3%
  Benchtop stability, Mean concentration: 409.3 nM
  Benchtop stability, Difference: 2.8%
  Processed sample stability, Accuracy: 97.7%
  Processed sample stability, Mean concentration: 390.7 nM
  Processed sample stability, Difference: 2.2%
  Autosampler stability (5 °C), Accuracy: 95.4%
  Autosampler stability (5 °C), Mean concentration: 381.8 nM
  Autosampler stability (5 °C), Difference: 1.5%
  Long-term stability (−20 °C), Accuracy: 104.5%
  Long-term stability (−20 °C), Mean concentration: 418.1 nM
  Long-term stability (−20 °C), Difference: 3.4%
[4]; LQC 0.6 nM
  Freeze-thaw stability, Accuracy: 101.0%
  Freeze-thaw stability, Mean concentration: 0.606 nM
  Freeze-thaw stability, Difference: 5.3%
  Benchtop stability, Accuracy: 97.7%
  Benchtop stability, Mean concentration: 0.586 nM
  Benchtop stability, Difference: 3.2%
  Processed sample stability, Accuracy: 91.1%
  Processed sample stability, Mean concentration: 0.547 nM
  Processed sample stability, Difference: −3.4%
  Autosampler stability (5 °C), Accuracy: 92.5%
  Autosampler stability (5 °C), Mean concentration: 0.555 nM
  Autosampler stability (5 °C), Difference: 3.1%
  Long-term stability (−20 °C), Accuracy: 101.5%
  Long-term stability (−20 °C), Mean concentration: 0.609 nM
  Long-term stability (−20 °C), Difference: −2.2%
[5]; HQC 400.0 nM
  Freeze-thaw stability, Accuracy: 103.2%
  Freeze-thaw stability, Mean concentration: 412.9 nM
  Freeze-thaw stability, Difference: 1.1%
  Benchtop stability, Accuracy: 101.7%
  Benchtop stability, Mean concentration: 406.7 nM
  Benchtop stability, Difference: −1.5%
  Processed sample stability, Accuracy: 102.3%
  Processed sample stability, Mean concentration: 409.3 nM
  Processed sample stability, Difference: −0.9%
  Autosampler stability (5 °C), Accuracy: 105.2%
  Autosampler stability (5 °C), Mean concentration: 420.9 nM
  Autosampler stability (5 °C), Difference: 3.3%
[5]; LQC 0.6 nM
  Freeze-thaw stability, Accuracy: 101.4%
  Freeze-thaw stability, Mean concentration: 0.608 nM
  Freeze-thaw stability, Difference: −7.9%
  Benchtop stability, Accuracy: 110.2%
  Benchtop stability, Mean concentration: 0.661 nM
  Benchtop stability, Difference: 0.2%
  Processed sample stability, Accuracy: 112.3%
  Processed sample stability, Mean concentration: 0.674 nM
  Processed sample stability, Difference: 2.1%
  Autosampler stability (5 °C), Accuracy: 111.2%
  Autosampler stability (5 °C), Mean concentration: 0.667 nM
  Autosampler stability (5 °C), Difference: 4.4%
[5]; 39 days, HQC 400.0 nM
  Long-term stability (−20 °C), Mean concentration: 422.7 nM
  Long-term stability (−20 °C), Difference: 3.5%
[5]; 39 days, LQC 0.6 nM
  Long-term stability (−20 °C), Accuracy: 103.6%
  Long-term stability (−20 °C), Mean concentration: 0.622 nM
  Long-term stability (−20 °C), Difference: −5.9%

From paper PMC9463526 (Journal of Pharmaceutical Analysis, 2022)
